Experiments:
[1] = tested on: Untransfected glioblastoma cells; assay: Cytotoxicity in glioblastoma cells; format: cell-based, human; settings: 1 μM
Text: (§1) The neoplastic cell lines used in the survey were standard tumor cell lines, e.g., PA1 human ovarian cell line, SKOV3 human ovarian cell line, HT29 human colon tumor cell line, DU145 human prostate tumor cell line, U251 human glioblastoma cell line, U251-MDR human glioblastoma cell line transfected with DNA encoding MDR, T98G human glioblastoma cell line, SP-1 human leukemia cell line, and Daudi human leukemia cell line.
(§2) Glioblastoma cells were transfected with a gene encoding multiple drug resistance (MDR).

[2] = tested on: MDR-transfected glioblastoma cells; assay: Cytotoxicity in drug resistant glioblastoma cells
Text: as §1, §2

[3] = tested on: human cancer cell lines; assay: Cytotoxic activity of taurultam in vitro; format: cell-based
Procedure: The cytotoxic activity of taurultam was evaluated in vitro using the same human cancer cell lines as described above. […] The data also indicate that the cytotoxic effect is directly proportionate to the number of methylol molecules liberated per molecule of methylol-containing compound

Row | SMILES | cytotoxicity [1] | cytotoxicity ([2]; 1 μM) | resistance of transfected cells ([2]; MDR-transfected versus untransfected) | apoptotic death ([3]; cancer cells versus normal control cells) | cytotoxic activity relative to taurolidine ([3]; of the activity observed with taurolidine)
1 | COc1cccc2c1C(=O)c1c(O)c3c(c(O)c1C2=O)C[C@@](O)(C(=O)CO)C[C@@H]3O[C@H]1C[C@H](N)[C@H](O)[C@H](C)O1 [adriamycin] | killed | resistant | 100-1000 times | – | –
2 | O=S1(=O)CCNCN1 [taurultam] | – | – | – | induced apoptotic death of cancer cells but not normal control cells | approximately 75%

From US6703413B2 (Rhode Island Hospital, priority 1999, dated 2004)
